Like-named read-outs stand apart in the source and are kept apart here. Each block holds one compound with its values, some of them ahead of it.
Tests used:
[1] = target: T1, c-Met (cytoplasmic domain) (Homo sapiens, UniProt P08581); test: c-Met Kinase Assay (same methods as for ALK, with modifications); assay type: biochemical
T1 construct: 10 ng/mL c-Met (cytoplasmic domain, Invitrogen Corporation #PV3143); purchased Invitrogen Corporation PV3143
Summary of the method: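 Steps: coat wells with PLC-γ (10 μg/mL, Tris-buffered saline); add 10 ng/mL c-Met cytoplasmic domain to initiate; incubate 15 min, 37° C; detect phosphoproduct via Eu-N1 PT66 antibody.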

[2] = target: T2, baculovirus-expressed ALK (Homo sapiens, UniProt Q9UM73); test: ALK Kinase Assay (ELISA-type, time-resolved fluorescence); assay type: biochemical
T2 construct: host or cells: baculovirus expression system
Summary of the method: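 Wells were coated with phospholipase C-γ at 10 μg/mL in Tris-buffered saline. Adding 30 ng/ml enzyme started the reaction, which ran at 37° C for 15 minutes before Eu-N1 PT66 antibody detection. Percent inhibition versus log10 concentration gave IC50 by variable-slope fit.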

[3] = c-Met kinase inhibition, 1 μM ATP, read-out: cMet Activity
[4] = ALK kinase inhibition, 1 μM ATP, read-out: ALK Activity
[5] = 1 μM ATP (Km level), read-out: cMet Activity (c-Met Kinase Inhibition, IC50)
[6] = 1 μM ATP (Km level), read-out: ALK Activity (ALK Kinase Inhibition, IC50)
[7] = 1 μM ATP (Km level), 10 ng/mL c-Met, read-out: cMet Activity (c-Met kinase inhibition, IC50 class)
[8] = 1 μM ATP (Km level), 30 ng/ml ALK, 37° C., 15 minutes, read-out: ALK Activity (ALK kinase inhibition, IC50 class)
[9] = c-Met kinase inhibition, 1 μM ATP (Km level), read-out: cMet Activity
[10] = ALK kinase inhibition, 1 μM ATP (Km level), read-out: ALK Activity

T1 sequence (P08581 956-1390 limits assumed): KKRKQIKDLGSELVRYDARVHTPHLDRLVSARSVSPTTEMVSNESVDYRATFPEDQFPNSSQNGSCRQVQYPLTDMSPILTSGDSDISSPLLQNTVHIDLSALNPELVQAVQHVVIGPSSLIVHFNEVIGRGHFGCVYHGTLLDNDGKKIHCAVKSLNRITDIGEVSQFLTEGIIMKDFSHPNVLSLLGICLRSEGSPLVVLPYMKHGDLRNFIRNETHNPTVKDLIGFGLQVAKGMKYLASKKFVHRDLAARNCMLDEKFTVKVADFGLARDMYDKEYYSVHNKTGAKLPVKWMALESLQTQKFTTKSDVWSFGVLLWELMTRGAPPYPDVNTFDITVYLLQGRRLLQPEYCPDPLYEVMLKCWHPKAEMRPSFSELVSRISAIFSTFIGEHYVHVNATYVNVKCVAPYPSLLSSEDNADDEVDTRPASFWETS
T2 sequence (Q9UM73 19-1620): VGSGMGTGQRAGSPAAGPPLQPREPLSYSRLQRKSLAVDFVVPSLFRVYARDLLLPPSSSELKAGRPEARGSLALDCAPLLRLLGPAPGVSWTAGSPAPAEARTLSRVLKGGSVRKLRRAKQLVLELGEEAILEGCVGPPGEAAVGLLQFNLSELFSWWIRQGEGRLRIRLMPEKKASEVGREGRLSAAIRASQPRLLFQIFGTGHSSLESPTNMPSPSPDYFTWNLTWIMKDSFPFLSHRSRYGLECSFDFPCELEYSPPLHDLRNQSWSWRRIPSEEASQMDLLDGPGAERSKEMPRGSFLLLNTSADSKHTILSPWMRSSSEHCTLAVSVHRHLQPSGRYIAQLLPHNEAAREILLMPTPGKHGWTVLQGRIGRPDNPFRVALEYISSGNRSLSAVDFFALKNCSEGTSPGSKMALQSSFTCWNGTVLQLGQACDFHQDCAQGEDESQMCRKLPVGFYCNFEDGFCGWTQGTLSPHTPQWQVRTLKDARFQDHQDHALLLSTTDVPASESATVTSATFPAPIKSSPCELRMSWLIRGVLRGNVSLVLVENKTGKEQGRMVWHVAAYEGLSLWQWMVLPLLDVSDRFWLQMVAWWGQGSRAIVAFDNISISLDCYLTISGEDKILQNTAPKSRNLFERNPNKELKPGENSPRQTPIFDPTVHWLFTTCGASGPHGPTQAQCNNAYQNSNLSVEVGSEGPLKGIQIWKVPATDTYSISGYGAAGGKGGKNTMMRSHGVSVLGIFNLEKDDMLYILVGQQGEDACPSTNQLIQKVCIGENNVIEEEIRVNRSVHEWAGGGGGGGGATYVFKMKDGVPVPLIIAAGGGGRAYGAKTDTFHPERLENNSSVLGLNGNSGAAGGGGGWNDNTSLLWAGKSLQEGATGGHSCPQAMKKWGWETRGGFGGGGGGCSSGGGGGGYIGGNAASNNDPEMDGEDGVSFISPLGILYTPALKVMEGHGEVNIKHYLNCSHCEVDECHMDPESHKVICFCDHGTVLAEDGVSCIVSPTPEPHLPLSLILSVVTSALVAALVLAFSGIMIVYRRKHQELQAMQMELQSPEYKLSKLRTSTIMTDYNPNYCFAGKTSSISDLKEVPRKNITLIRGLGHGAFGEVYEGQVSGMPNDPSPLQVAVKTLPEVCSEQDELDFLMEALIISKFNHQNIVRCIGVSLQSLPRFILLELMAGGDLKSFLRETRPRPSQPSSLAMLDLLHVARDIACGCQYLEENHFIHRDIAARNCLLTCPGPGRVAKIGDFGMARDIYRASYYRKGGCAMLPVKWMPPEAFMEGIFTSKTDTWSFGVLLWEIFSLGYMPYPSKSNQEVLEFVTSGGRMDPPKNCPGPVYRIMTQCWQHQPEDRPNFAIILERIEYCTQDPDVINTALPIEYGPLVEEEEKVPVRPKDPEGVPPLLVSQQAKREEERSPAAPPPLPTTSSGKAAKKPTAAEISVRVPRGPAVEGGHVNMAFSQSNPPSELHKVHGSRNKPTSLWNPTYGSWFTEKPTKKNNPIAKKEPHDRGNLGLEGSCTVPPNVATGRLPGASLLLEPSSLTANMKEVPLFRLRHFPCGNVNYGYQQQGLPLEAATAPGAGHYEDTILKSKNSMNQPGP

Compound: C#CCNC(=O)c1cccc(F)c1Nc1nc(Nc2ccc3c(c2)N(C(=O)CN)CCCC3(C)C)ncc1Cl [Example 1619, 2-{2-[1-(2-Amino-acetyl)-5,5-dimethyl-2,3,4,5-tetrahydro-1H-benzo[b]azepin-8-ylamino]-5-chloro-pyrimidin-4-ylamino}-3-fluoro-N-prop-2-ynyl-benzamide]
IC50 [1, 3]: < 0.1 µM
IC50 [2, 4]: 0.1 to 1 µM

Compound: CCN1C(=O)CN(CC(=O)N(C)C)Cc2cc(OC)c(Nc3ncc(Cl)c(Nc4ccc(N5CCOCC5)cc4OC)n3)cc21 [Example 727, 2-{8-[5-Chloro-4-(2-methoxy-4-morpholin-4-yl-phenylamino)-pyrimidin-2-ylamino]-1-ethyl-7-methoxy-2-oxo-1,2,3,5-tetrahydro-benzo[e][1,4]diazepin-4-yl}-N,N-dimethyl-acetamide]
IC50 [1, 5]: > 10 µM
IC50 [2, 6]: 0.1 to 1 µM

Compound: C#CCNC(=O)c1cccc(F)c1Nc1nc(Nc2ccc3c(c2)OCCCN3CCN2CCCC2)ncc1Cl [Example 1719, 2-{5-Chloro-2-[9-(2-pyrrolidin-1-yl-ethyl)-6,7,8,9-tetrahydro-5-oxa-9-aza-benzocyclohepten-3-ylamino]-pyrimidin-4-ylamino}-3-fluoro-N-prop-2-ynyl-benzamide]
IC50 [1, 3]: < 0.1 µM
IC50 [2, 4]: < 0.1 µM

Compound: 5-Chloro-N(4)-(2-fluoro-6-methanesulfonyl-phenyl)-(2-fluoro-6-methanesulfonyl-phenyl)2,3,4,5-tetrahydro-1H-3-benzazepin-7-yl]-pyrimidine-2,4-diamine [Example 1262]
IC50 [1, 7]: 1 to 10 µM
IC50 [2, 8]: 0.1 to 1 µM

Compound: CNC(=O)c1sccc1Nc1nc(Nc2ccc3c(c2)OCCCN3C(=O)OCCCN(C)C)ncc1Cl [Example 1428, 3-[5-Chloro-4-(2-methylcarbamoyl-thiophen-3-ylamino)-pyrimidin-2-ylamino]-7,8-dihydro-6H-5-oxa-9-aza-benzocycloheptene-9-carboxylic acid 3-dimethylamino-propyl ester]
IC50 [1, 7]: 0.1 to 1 µM
IC50 [2, 8]: 0.1 to 1 µM

Compound: N-{(1R,2R)-2-[2-(12-sec-Butyl-12-aza-tricyclo[7.2.1.0*2,7*]dodeca-2(7),3,5-trien-4-ylamino)-5-chloro-pyrimidin-4-ylamino]-cyclohexyl}-methanesulfonamide [Example 85]
IC50 [1, 9]: 0.1 to 1 µM
IC50 [2, 10]: < 0.1 µM

Compound: COc1c(Nc2ncc(Cl)c(Nc3ccccc3S(=O)(=O)C(C)C)n2)ccc2c1CCCC(N1CCOCC1)C2 (stereo not shown) [Example 947, 5-Chloro-N(2)-(1-methoxy-6-morpholin-4-yl-6,7,8,9-tetrahydro-5H-benzocyclohepten-2-yl)-N(4)-[2-(propane-2-sulfonyl)-phenyl]-pyrimidine-2,4-diamine]
IC50 [1, 5]: > 10 µM
IC50 [2, 6]: < 0.1 µM

Compound: CNC(=O)c1ccccc1Nc1nc(Nc2ccc3c(c2Br)C2CCC3CN(C(=O)C(F)(F)F)C2)ncc1Cl (stereo not shown) [Example 297, 2-{2-[3-Bromo-10-(2,2,2-trifluoro-acetyl)-10-aza-tricyclo[6.3.2.0*2,7*]trideca-2,4,6-trien-4-ylamino]-5-chloro-pyrimidin-4-ylamino}-N-methyl-benzamide]
IC50 [1, 9]: > 10 µM
IC50 [2, 10]: 0.1 to 1 µM

Compound: CNC(=O)c1scc(C)c1Nc1nc(Nc2ccc3c(c2)CCN(CCOC)CC3)ncc1Cl [Example 1362, 3-{5-Chloro-2-[3-(2-methoxy-ethyl)-2,3,4,5-tetrahydro-1H-benzo[d]azepin-7-ylamino]-pyrimidin-4-ylamino}-4-methyl-thiophene-2-carboxylic acid methylamide]
IC50 [1, 7]: < 0.1 µM
IC50 [2, 8]: 0.1 to 1 µM

Compound: CCN1C(=O)CCCc2ccc(Nc3ncc(Cl)c(Nc4cccc(CC#N)c4)n3)cc21 [Example 1229, {3-[5-Chloro-2-(1-ethyl-2-oxo-2,3,4,5-tetrahydro-1H-1-benzazepin-8-ylamino)-pyrimidin-4-ylamino]-phenyl}-acetonitrile]
IC50 [1, 7]: 0.1 to 1 µM
IC50 [2, 8]: 0.1 to 1 µM

Compound: CN1CCN(S(C)(=O)=O)Cc2ccc(Nc3ncc(Cl)c(N[C@@H]4CCCC[C@H]4NS(C)(=O)=O)n3)cc21 [Example 477, N-{(1R,2R)-2-[5-Chloro-2-(4-methanesulfonyl-1-methyl-2,3,4,5-tetrahydro-1H-benzo[e][1,4]diazepin-8-ylamino)-pyrimidin-4-ylamino]-cyclohexyl}-methanesulfonamide]
IC50 [1, 9]: 1 to 10 µM
IC50 [2, 10]: < 0.1 µM

Compound: COc1cc2c(cc1Nc1ncc(Cl)c(Nc3ccc(N4CCOCC4)cc3OC)n1)CCN(CC(=O)OC(C)C)CC2 [Example 800, {7-[5-Chloro-4-(2-methoxy-4-morpholin-4-yl-phenylamino)-pyrimidin-2-ylamino]-8-methoxy-1,2,4,5-tetrahydro-benzo[d]azepin-3-yl}-acetic acid isopropyl ester]
IC50 [1, 5]: > 10 µM
IC50 [2, 6]: < 0.1 µM

Compound: CNC(=O)c1ccccc1Nc1nc(Nc2ccc3c(c2)CCN(C(C)C)CC3)ncc1Cl [Example 47, 2-[5-Chloro-2-(3-isopropyl-2,3,4,5-tetrahydro-1H-benzo[d]azepin-7-ylamino)-pyrimidin-4-ylamino]-N-methyl-benzamide]
IC50 [1, 9]: < 0.1 µM
IC50 [2, 10]: < 0.1 µM

Compound: CN1CCN(S(C)(=O)=O)Cc2ccc(Nc3ncc(Cl)c(Nc4ccccc4NS(C)(=O)=O)n3)cc21 [Example 474, N-{2-[5-Chloro-2-(4-methanesulfonyl-1-methyl-2,3,4,5-tetrahydro-1H-benzo[e][1,4]diazepin-8-ylamino)-pyrimidin-4-ylamino]-phenyl}-methanesulfonamide]
IC50 [1, 9]: 0.1 to 1 µM
IC50 [2, 10]: < 0.1 µM

The remaining lines, values ahead:

IC50 [1, 5]: > 10 µM
IC50 [2, 6]: < 0.1 µM
Compound: Cn1ccnc1-c1ccccc1Nc1nc(Nc2ccc3c(c2)CCCC(=O)N3)ncc1Cl [Example 994, 7-{5-Chloro-4-[2-(1-methyl-1H-imidazol-2-yl)-phenylamino]-pyrimidin-2-ylamino}-1,3,4,5-tetrahydro-benzo[b]azepin-2-one]

IC50 [1, 9]: 1 to 10 µM
IC50 [2, 10]: < 0.1 µM
Compound: N-(2-{5-Chloro-2-[3-methyl-5-oxo-1-(2,2,2-trifluoro-acetyl)-2,3,4,5-tetrahydro-1H-benzo[e][1,4]diazepin-6-ylamino]-pyrimidin-4-ylamino}-phenyl)-methanesulfonamide and N-(2-{5-Chloro-2-[2-methyl-5-oxo-1-(2,2,2-trifluoro-acetyl)-2,3,4,5-tetrahydro-1H-benzo[e][1,4]diazepin-6-ylamino]-pyrimidin-4-ylamino}-phenyl)-methanesulfonamide (Mixture of regioisomers) [Example 230]

IC50 [1, 5]: 0.1 to 1 µM
IC50 [2, 6]: < 0.1 µM
Compound: COc1c(Nc2ncc(Cl)c(Nc3ccccc3S(=O)(=O)N3CCCC3)n2)ccc2c1CCC(NCCO)CC2 (stereo not shown) [Example 704, 2-(2-{5-Chloro-4-[2-(pyrrolidine-1-sulfonyl)-phenylamino]-pyrimidin-2-ylamino}-1-methoxy-6,7,8,9-tetrahydro-5H-benzocyclohepten-7-ylamino)-ethanol]

IC50 [1, 3]: 0.1 to 1 µM
IC50 [2, 4]: < 0.1 µM
Compound: CNC(=O)c1ccccc1Nc1nc(Nc2cc3c(cc2OC)N(C)C(=O)OCC3)ncc1C(F)(F)F [Example 1513, 2-[2-(3-Methoxy-5-methyl-6-oxo-5,6,8,9-tetrahydro-7-oxa-5-aza-benzocyclohepten-2-ylamino)-5-trifluoromethyl-pyrimidin-4-ylamino]-N-methyl-benzamide]

IC50 [1, 5]: > 10 µM
IC50 [2, 6]: < 0.1 µM
Compound: COc1cc2c(cc1Nc1ncc(Cl)c(Nc3ccccc3S(=O)(=O)N3CC[C@@H](N(C)C)C3)n1)CCN(CC(=O)N(C)C)CC2 [Example 845, 2-(7-{5-Chloro-4-[2-((R)-3-dimethylamino-pyrrolidine-1-sulfonyl)-phenylamino]-pyrimidin-2-ylamino}-8-methoxy-1,2,4,5-tetrahydro-benzo[d]azepin-3-yl)-N,N-dimethyl-acetamide]

IC50 [1, 3]: < 0.1 µM
IC50 [2, 4]: < 0.1 µM
Compound: CNC(=O)c1ccccc1Nc1nc(Nc2ccc3c(c2)N(C(C)=O)CCCO3)ncc1Cl [Example 1703, 2-[2-(9-Acetyl-6,7,8,9-tetrahydro-5-oxa-9-aza-benzocyclohepten-2-ylamino)-5-chloro-pyrimidin-4-ylamino]-N-methyl-benzamide]

IC50 [1, 9]: < 0.1 µM
IC50 [2, 10]: < 0.1 µM
Compound: CCN1CCc2ccc(Nc3ncc(Cl)c(Nc4ccccc4C(=O)NC)n3)cc2CC1 [Example 31, 2-[5-Chloro-2-(3-ethyl-2,3,4,5-tetrahydro-1H-benzo[d]azepin-7-ylamino)-pyrimidin-4-ylamino]-N-methyl-benzamide]

IC50 [1, 7]: 1 to 10 µM
IC50 [2, 8]: 0.1 to 1 µM
Compound: NC(=O)c1cccc(F)c1Nc1nc(Nc2ccc3c(c2)NC(=O)CCC3)ncc1Cl [Example 1256, 2-[5-Chloro-2-(2-oxo-2,3,4,5-tetrahydro-1H-1-benzazepin-8-ylamino)-pyrimidin-4-ylamino]-3-fluoro-benzamide]

IC50 [1, 3]: < 0.1 µM
IC50 [2, 4]: 0.1 to 1 µM
Compound: CCN1CC(=O)Nc2cc(Nc3ncc(Cl)c(Nc4c(F)cccc4C(=O)NC)n3)ccc2C1 [Example 1863, 2-[5-Chloro-2-(4-ethyl-2-oxo-2,3,4,5-tetrahydro-1H-benzo[e][1,4]diazepin-8-ylamino)-pyrimidin-4-ylamino]-3-fluoro-N-methyl-benzamide]
